ChEMBL document CHEMBL1821548, “Structure selectivity relationship studies of 17-cyclopropylmethyl-3,14β-dihydroxy-4,5α-epoxy-6β-[(4'-pyridyl)carboxamido]morphinan derivatives toward the development of the mu opioid receptor antagonists” (Bioorg Med Chem Lett, 2011)

How the values were obtained:
[1] = molecular target: T1, Mu-type opioid receptor (Homo sapiens, UniProt P35372); assay: Displacement of [3H]naloxone from mu opioid receptor expressed in CHO cells after 1 hr; assay type: cell-based
[2] = Selectivity ratio of Ki for delta opioid receptor to Ki for mu opioid receptor
[3] = molecular target: Kappa-type opioid receptor (Homo sapiens, UniProt P41145); assay: Displacement of [3H]-norBNI from kappa opioid receptor expressed in CHO cells after 1 hr; assay type: cell-based
[4] = molecular target: T1, Mu-type opioid receptor; assay: Agonist activity against mu opioid receptor expressed in CHO cells assessed as stimulation of [35S]-GTPgammaS binding; assay type: functional, cell-based
[5] = molecular target: T1, Mu-type opioid receptor; assay: Agonist activity against mu opioid receptor expressed in CHO cells assessed as stimulation of [35S]-GTPgammaS binding relative to DAMGO; assay type: functional, cell-based
[6] = Selectivity ratio of Ki for kappa opioid receptor to Ki for mu opioid receptor
[7] = molecular target: Delta-type opioid receptor (Homo sapiens, UniProt P41143); assay: Displacement of [3H]-NTI from delta opioid receptor expressed in CHO cells after 1 hr; assay type: cell-based
[8] = molecular target: T1, Mu-type opioid receptor; conditions: CHO; 100 nM
Description: Agonist activity against mu opioid receptor expressed in CHO cells assessed as stimulation of [35S]-GTPgammaS binding at 100 nM relative to DAMGO

Kappa-type opioid receptor, sequence (P41145 whole entry): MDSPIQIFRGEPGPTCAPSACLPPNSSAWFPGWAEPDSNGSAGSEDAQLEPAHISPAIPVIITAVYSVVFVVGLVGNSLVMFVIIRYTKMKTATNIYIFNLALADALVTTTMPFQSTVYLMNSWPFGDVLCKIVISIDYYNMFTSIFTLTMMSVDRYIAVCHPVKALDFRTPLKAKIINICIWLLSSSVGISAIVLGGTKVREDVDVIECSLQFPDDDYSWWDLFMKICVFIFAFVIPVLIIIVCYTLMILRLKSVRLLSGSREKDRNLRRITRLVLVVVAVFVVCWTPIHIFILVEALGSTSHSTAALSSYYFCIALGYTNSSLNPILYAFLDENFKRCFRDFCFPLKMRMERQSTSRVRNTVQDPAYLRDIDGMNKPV
Delta-type opioid receptor, sequence (P41143 whole entry): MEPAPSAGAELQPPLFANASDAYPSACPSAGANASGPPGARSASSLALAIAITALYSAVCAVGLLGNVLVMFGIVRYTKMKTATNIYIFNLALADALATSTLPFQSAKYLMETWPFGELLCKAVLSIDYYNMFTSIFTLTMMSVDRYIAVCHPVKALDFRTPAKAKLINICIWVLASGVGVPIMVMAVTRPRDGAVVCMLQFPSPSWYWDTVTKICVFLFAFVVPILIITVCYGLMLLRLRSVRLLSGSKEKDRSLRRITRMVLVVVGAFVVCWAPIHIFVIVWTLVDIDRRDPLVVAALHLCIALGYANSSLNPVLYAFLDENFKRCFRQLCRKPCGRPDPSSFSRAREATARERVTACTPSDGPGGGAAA
T1 sequence (P35372 whole entry): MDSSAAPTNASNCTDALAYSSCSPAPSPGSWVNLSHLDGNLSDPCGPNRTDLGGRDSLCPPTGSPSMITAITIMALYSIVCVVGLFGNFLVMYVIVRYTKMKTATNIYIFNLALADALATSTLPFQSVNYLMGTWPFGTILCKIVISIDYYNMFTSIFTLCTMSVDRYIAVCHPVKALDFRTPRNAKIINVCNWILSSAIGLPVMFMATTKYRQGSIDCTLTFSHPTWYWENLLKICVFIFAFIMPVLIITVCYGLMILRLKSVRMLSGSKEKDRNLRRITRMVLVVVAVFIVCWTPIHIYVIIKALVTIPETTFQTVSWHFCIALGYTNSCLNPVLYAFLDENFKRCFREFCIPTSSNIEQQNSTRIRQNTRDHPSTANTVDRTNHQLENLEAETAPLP

SMILES | Ki [1] | Ratio Ki [2] | Ki [3] | EC50 [4] | Emax [5] | Ratio Ki [6] | Ki [7] | Emax [8]
CN1CCC(C(=O)N[C@@H]2CC[C@@]3(O)[C@H]4Cc5ccc(O)c6c5[C@@]3(CCN4CC3CC3)[C@H]2O6)CC1 | 0.87 nM | 2970 | 6.49 nM | 5.08 nM | 37.2% | 7.5 | 2590 nM | 
O=C(Cc1ccncc1)N[C@@H]1CC[C@@]2(O)[C@H]3Cc4ccc(O)c5c4[C@@]2(CCN3CC2CC2)[C@H]1O5 | 0.85 nM | 1020 | 9.01 nM | 2.32 nM | 32.8% | 10.6 | 866 nM | 
O=C(CCc1ccncc1)N[C@@H]1CC[C@@]2(O)[C@H]3Cc4ccc(O)c5c4[C@@]2(CCN3CC2CC2)[C@H]1O5 | 0.57 nM | 516 | 1.65 nM | 1.46 nM | 22.6% | 2.9 | 294 nM | 
O=C(CNC(=O)c1ccncc1)N[C@@H]1CC[C@@]2(O)[C@H]3Cc4ccc(O)c5c4[C@@]2(CCN3CC2CC2)[C@H]1O5 | 0.73 nM |  | 203 nM | 2.84 nM | 22.6% |  | 526 nM | 
O=C(N[C@@H]1CC[C@@]2(O)[C@H]3Cc4ccc(O)c5c4[C@@]2(CCN3CC2CC2)[C@H]1O5)c1ccncc1Br | 0.45 nM | 285 | 2.83 nM | 1.31 nM | 23.2% | 6.3 | 128 nM | 
O=C(N[C@@H]1CC[C@@]2(O)[C@H]3Cc4ccc(O)c5c4[C@@]2(CCN3CC2CC2)[C@H]1O5)c1ccnc(Br)c1 | 0.63 nM | 276 | 0.18 nM | 1.19 nM | 50.8% | 0.3 | 174 nM | 
O=C(N[C@@H]1CC[C@@]2(O)[C@H]3Cc4ccc(O)c5c4[C@@]2(CCN3CC2CC2)[C@H]1O5)c1ccnc(Cl)c1 | 0.1 nM | 6110 | 0.15 nM | 0.83 nM | 58.2% | 1.5 | 602 nM | 
Cc1cc(C(=O)N[C@@H]2CC[C@@]3(O)[C@H]4Cc5ccc(O)c6c5[C@@]3(CCN4CC3CC3)[C@H]2O6)ccn1 | 0.39 nM | 232 | 0.58 nM | 1.13 nM | 43.3% | 1.5 | 90.1 nM | 
C[C@@H](O)[C@H](NC(=O)[C@H]1NC(=O)[C@H]([C@@H](C)O)NC(=O)[C@H](CCCNC(=N)N)NC(=O)[C@@H](Cc2c[nH]c3ccccc23)NC(=O)[C@H](Cc2ccc(O)cc2)NC(=O)[C@@H](NC(=O)[C@H]2Cc3ccccc3CN2)CSSC1(C)C)C(N)=O |  |  |  |  |  |  |  | 1.99%
O=C(N[C@@H]1CC[C@@]2(O)[C@H]3Cc4ccc(O)c5c4[C@@]2(CCN3CC2CC2)[C@H]1O5)c1ccncc1Cl | 0.67 nM | 746 | 19.9 nM | 2.32 nM | 24.9% | 29.6 | 502 nM | 
Cc1cnccc1C(=O)N[C@@H]1CC[C@@]2(O)[C@H]3Cc4ccc(O)c5c4[C@@]2(CCN3CC2CC2)[C@H]1O5 | 0.58 nM | 470 | 96.7 nM | 1.52 nM | 30.6% | 166 | 274 nM | 
